Laboratory results from US12297203B2, “Pyrrolopyrimidine ITK inhibitors” (ACLARIS THERAPEUTICS, INC., priority 2018, dated 2025).

Assays:
ITK = ITK (Homo sapiens (Human), UniProt Q08881); test: ITK inhibitor binding potency (LanthaScreen competitive binding assay); conditions: read-out: ITK Inh. IC50
Outline: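 TR-FRET tracer displacement: 10 nM GST-ITK, 2 nM Eu-anti-GST, 50 nM tracer-236 in HEPES pH 7.5, MgCl2, 2% DMSO; 11 points, 20 µM–0.34 nM. Run with or without 2 h compound–ITK preincubation before tracer; IC50 by 4-parameter fit of emission ratio.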

JAK3 = JAK3 (Homo sapiens (Human), UniProt P52333); test: JAK3 enzyme activity assay (Caliper mobility shift); assay type: biochemical; conditions: ATP at Km level; read-out: JAK3 Inh. IC50
Outline: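 Caliper mobility-shift assay with 2.5 nM JAK3, […] and […] (Km level) in 20 mM HEPES pH 7.5, 10 mM MgCl2, 0.01% BSA, 0.0005% Tween-20, 2% DMSO. 11-point dose-response from […] 0.34 nM; IC50 by 4-parameter logistic fit of product/substrate signal.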

[1] = system: ITK phosphorylation of its substrate, PLCγ1, at Y783; test: ITK target modulation assay (PLCγ1 Y783 phosphorylation, anti-CD3 stimulated Jurkat T cells); assay type: cell-based; conditions: Homo sapiens, Jurkat, anti-CD3 Dynabeads stimulation, read-out: PLC-γ Inh. IC50
Outline: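 Jurkat cells (400,000/well) were preincubated with compound for 1 h at 37 °C (0.1% DMSO final), then stimulated with anti-CD3 Dynabeads (bead:cell 2:1). Hypotonic lysates were dot-blotted and probed for phospho-PLCγ1 Y783 and total PLCγ1, with quantification by dual-channel infrared imaging.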

[2] = system: JAK1/3 phosphorylation of its substrate, STAT5, at Y694; test: JAK1/3 target modulation assay (IL-2 stimulated STAT5 Y694 phosphorylation in PBMC); assay type: cell-based; conditions: Homo sapiens, PBMC, Primary human peripheral blood mononuclear cells, IL-2 25 ng/mL; read-out: IL2-STAT5 Inh. IC50
Outline: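 Human PBMCs preincubated with compound for 1 h at 37 °C, then stimulated with IL-2 (25 ng/mL final) for 5 min. Cells were lysed and phospho-STAT5a,b (Y694) measured by MSD electrochemiluminescence immunoassay, single-plex or multiplex with total STAT5a,b.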

Chain of JAK3 (P52333 781-1124): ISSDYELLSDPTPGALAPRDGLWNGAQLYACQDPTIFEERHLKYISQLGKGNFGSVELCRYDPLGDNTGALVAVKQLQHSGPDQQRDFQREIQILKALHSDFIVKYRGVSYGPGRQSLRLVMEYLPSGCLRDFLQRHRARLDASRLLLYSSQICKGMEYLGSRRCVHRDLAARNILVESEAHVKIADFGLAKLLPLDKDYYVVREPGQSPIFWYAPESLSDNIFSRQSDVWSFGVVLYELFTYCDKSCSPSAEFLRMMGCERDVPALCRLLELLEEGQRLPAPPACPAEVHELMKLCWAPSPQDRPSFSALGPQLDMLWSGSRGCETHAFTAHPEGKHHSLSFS
Chain of ITK (Q08881 whole entry): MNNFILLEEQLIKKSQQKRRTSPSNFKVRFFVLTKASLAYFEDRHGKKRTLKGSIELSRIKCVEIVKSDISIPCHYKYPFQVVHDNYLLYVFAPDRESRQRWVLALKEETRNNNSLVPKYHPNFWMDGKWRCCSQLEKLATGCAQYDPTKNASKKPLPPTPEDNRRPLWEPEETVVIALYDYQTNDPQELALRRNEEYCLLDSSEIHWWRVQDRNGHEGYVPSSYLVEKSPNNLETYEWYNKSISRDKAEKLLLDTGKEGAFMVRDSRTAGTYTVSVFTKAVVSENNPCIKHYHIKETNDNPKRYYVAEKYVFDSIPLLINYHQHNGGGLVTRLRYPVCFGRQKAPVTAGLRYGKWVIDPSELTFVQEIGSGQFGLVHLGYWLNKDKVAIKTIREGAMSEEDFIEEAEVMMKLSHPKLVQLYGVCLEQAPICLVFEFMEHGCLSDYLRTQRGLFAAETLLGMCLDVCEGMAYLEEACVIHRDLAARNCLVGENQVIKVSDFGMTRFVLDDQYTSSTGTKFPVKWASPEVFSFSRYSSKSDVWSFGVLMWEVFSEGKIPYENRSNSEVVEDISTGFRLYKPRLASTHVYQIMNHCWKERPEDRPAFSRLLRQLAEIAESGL

| SMILES | IC50 (ITK) | IC50 (JAK3) | IC50 [1] | IC50 [2] |
| --- | --- | --- | --- | --- |
| C=CC(=O)N1CCC[C@@H](Nc2ncnc3[nH]cc(C4CC4(F)F)c23)C1 (stereo partly drawn) [Example 27, 1-((3R)-3-((5-(2,2-difluorocyclopropyl)-7H-pyrrolo[2,3-d]pyrimidin-4-yl)amino)piperidin-1-yl)prop-2-en-1-one] | ≤ 10 nM | ≤ 10 nM | ≤ 100 nM | 100 to 1000 nM |
| C=CC(=O)N1CCC[C@@H](Nc2ncnc3[nH]cc(C4CCCC4)c23)C1 [Example 28, (R)-1-(3-((5-cyclopentyl-7H-pyrrolo[2,3-d]pyrimidin-4-yl)amino)piperidin-1-yl)prop-2-en-1-one] | ≤ 10 nM | ≤ 10 nM | ≤ 100 nM | 100 to 1000 nM |
| C=CC(=O)N1CCC[C@@H](Nc2ncnc3[nH]cc(C4=CCCC4)c23)C1 [Example 29, (R)-1-(3-((5-(cyclopent-1-en-1-yl)-7H-pyrrolo[2,3-d]pyrimidin-4-yl)amino)piperidin-1-yl)prop-2-en-1-one] | ≤ 10 nM | ≤ 10 nM | 100 to 1000 nM | 100 to 1000 nM |
| C=CC(=O)N1C[C@H](Nc2ncnc3[nH]cc(C4CCCC4)c23)CC[C@@H]1C [Example 30, 1-((2S,5R)-5-((5-cyclopentyl-7H-pyrrolo[2,3-d]pyrimidin-4-yl)amino)-2-methylpiperidin-1-yl)prop-2-en-1-one] | ≤ 10 nM | ≤ 10 nM | ≤ 100 nM | ≤ 100 nM |
| C=CC(=O)N1C[C@H](Nc2ncnc3[nH]cc(C(=O)OC(C)(C)C)c23)CC[C@@H]1C [Example 31, tert-butyl 4-(((3R,6S)-1-acryloyl-6-methylpiperidin-3-yl)amino)-7H-pyrrolo[2,3-d]pyrimidine-5-carboxylate] | ≤ 10 nM | ≤ 10 nM | 100 to 1000 nM | 100 to 1000 nM |
| C=CC(=O)N1C[C@H](Nc2ncnc3[nH]cc(C(=O)C4CC4)c23)CC[C@@H]1C [Example 32, 1-((2S,5R)-5-((5-(cyclopropanecarbonyl)-7H-pyrrolo[2,3-d]pyrimidin-4-yl)amino)-2-methylpiperidin-1-yl)prop-2-en-1-one] | ≤ 10 nM | ≤ 10 nM | 100 to 1000 nM | 100 to 1000 nM |
| C=CC(=O)N1C[C@H](Nc2ccnc3[nH]cc(C(=O)C4CC4)c23)CC[C@@H]1C [Example 34, 1-((2S,5R)-5-((3-(cyclopropanecarbonyl)-1H-pyrrolo[2,3-b]pyridin-4-yl)amino)-2-methylpiperidin-1-yl)prop-2-en-1-one] | ≤ 10 nM | ≤ 10 nM | ≤ 100 nM | 100 to 1000 nM |
| C=CC(=O)N1C[C@H](Nc2ccnc3[nH]cc(CC4CC4)c23)CC[C@@H]1C [Example 35, 1-((2S,5R)-5-((3-(cyclopropylmethyl)-1H-pyrrolo[2,3-b]pyridin-4-yl)amino)-2-methylpiperidin-1-yl)prop-2-en-1-one] | ≤ 10 nM | ≤ 10 nM | 100 to 1000 nM | 100 to 1000 nM |
| C[C@H]1CC[C@@H](Nc2ncnc3[nH]cc(CC4CC4)c23)CN1C(=O)/C=C/CN(C)C [Example 37, (E)-1-((2S,5R)-5-((5-(cyclopropylmethyl)-7H-pyrrolo[2,3-d]pyrimidin-4-yl)amino)-2-methylpiperidin-1-yl)-4-(dimethylamino)but-2-en-1-one] | ≤ 10 nM | 10 to 100 nM | 100 to 1000 nM | > 1000 nM |
| C=CC(=O)N1CC(Nc2ncnc3[nH]cc(CC4CC4)c23)CCC1CC (stereo not drawn) [Example 38, 1-(5-((5-(cyclopropylmethyl)-7H-pyrrolo[2,3-d]pyrimidin-4-yl)amino)-2-ethylpiperidin-1-yl)prop-2-en-1-one] | ≤ 10 nM | ≤ 10 nM | 100 to 1000 nM | 100 to 1000 nM |
| C=CC(=O)N1CC(Nc2ncnc3[nH]cc(CC4CC4)c23)CCC1C(C)C (stereo not drawn) [Example 41, 1-(5-((5-(cyclopropylmethyl)-7H-pyrrolo[2,3-d]pyrimidin-4-yl)amino)-2-isopropylpiperidin-1-yl)prop-2-en-1-one] | 10 to 100 nM | 10 to 100 nM | 100 to 1000 nM | > 1000 nM |
| C=CC(=O)N1C[C@H](Nc2ncnc3[nH]cc(C4(C)CC4(F)F)c23)CC[C@@H]1C (stereo partly drawn) [Example 50, 1-((2S,5R)-5-((5-(2,2-difluoro-1-methylcyclopropyl)-7H-pyrrolo[2,3-d]pyrimidin-4-yl)amino)-2-methylpiperidin-1-yl)prop-2-en-1-one] | ≤ 10 nM | ≤ 10 nM | ≤ 100 nM | 100 to 1000 nM |
| C=CC(=O)N1CCC(Nc2cnc3[nH]cc(C(=O)OCC)c3c2)CC1 [Example 96, ethyl 5-((1-acryloylpiperidin-4-yl)amino)-1H-pyrrolo[2,3-b]pyridine-3-carboxylate] | > 100 nM | ≤ 10 nM | > 1000 nM | 100 to 1000 nM |
| C=CC(=O)N1CCC(Nc2cnc3[nH]cc(C(=O)OCC)c3n2)CC1 [Example 97, ethyl 2-((1-acryloylpiperidin-4-yl)amino)-5H-pyrrolo[2,3-b]pyrazine-7-carboxylate] | > 100 nM | ≤ 10 nM | > 1000 nM | 100 to 1000 nM |
| C=CC(=O)N1CCC(Nc2cnc3[nH]cc(C(=O)C4CC4)c3c2)CC1 [Example 98, 1-(4-((3-(cyclopropanecarbonyl)-1H-pyrrolo[2,3-b]pyridin-5-yl)amino)piperidin-1-yl)prop-2-en-1-one] | > 100 nM | 10 to 100 nM | > 1000 nM | > 1000 nM |
| C=CC(=O)N1CCC(Nc2cnc3[nH]cc(C(=O)C4CC4)c3n2)CC1 [Example 99, 1-(4-((7-(cyclopropanecarbonyl)-5H-pyrrolo[2,3-b]pyrazin-2-yl)amino)piperidin-1-yl)prop-2-en-1-one] | 10 to 100 nM | ≤ 10 nM | > 1000 nM | ≤ 100 nM |
| C=CC(=O)N1CCC(Nc2cnc3[nH]cc(C(=O)C4CCC4)c3n2)CC1 [Example 100, 1-(4-((7-(cyclobutanecarbonyl)-5H-pyrrolo[2,3-b]pyrazin-2-yl)amino)piperidin-1-yl)prop-2-en-1-one] | 10 to 100 nM | ≤ 10 nM | 100 to 1000 nM | ≤ 100 nM |
| C=CC(=O)N1CCC(Nc2cnc3[nH]cc(C(COC)C4CC4)c3c2)CC1 (stereo not drawn) [Example 101, 1-(4-((3-(1-cyclopropyl-2-methoxyethyl)-1H-pyrrolo[2,3-b]pyridin-5-yl)amino)piperidin-1-yl)prop-2-en-1-one] | > 100 nM | > 100 nM | > 1000 nM | > 1000 nM |
